These results are taken from patent US20060223831A1, “Bromide and its crystal” (priority 2003, published 2006).

Data set [1] in a line: Evaluation of hygroscopic property (storage in humidity-adjusted desiccators). Type of data set: physicochemical. As to conditions: for Hygroscopic property: conclusion from storage at ca. 0 to 93% R.H.; for HPLC purity change / degradation due to storage: 7 days of storage, ca. 0 to 93% R.H. As for the experimental part: About 0.5 g of each of the α- form Crystals and β- form Crystals of the bromide obtained in Example 2 was put into a weighing bottle of known mass and, after precisely calculating its mass, preserved under the following storage condition at 25° C. to measure changes in the mass.
Storage condition: A desiccator adjusted to a humidity of about 0% R.H. (silica gel), 33% R.H. (saturated MgCl2.6H2O aqueous solution), 51% R.H. (saturated Ca(NO3)2 aqueous solution), 75% R.H. (saturated NaCl aqueous solution), or 93% R.H. (saturated KNO3 aqueous solution).
i) Moisture absorption (dehydrated amount): By taking out each sample after 7 days of the storage, the weight change was precisely measured and recorded to calculate amount of the absorbed moisture.
ii) Appearance verification: Appearance of the powder was verified with the naked eye and using a magnifying lens.
iii) Powder X-ray diffraction measurement: Powder X-ray diffraction patterns of samples before storage and after completion of the storage period were recorded by a powder X-ray diffraction device.
iv) HPLC purity: Detection of degraded products in the samples before storage and after completion of the storage period was carried out using HPLC to measure purity.
(HPLC conditions) Mobile phase: 0.1% trifluoroacetic acid aqueous solution/acetonitrile=9:2, column: TSKgel ODS 80TsQA, 4.6×150 mm, particle diameter 5 μm (mfd. by Tosoh), flow rate: 1 ml/min, column temperature: 40° C., detection: UV 260 nm

Data set [2] can be described thus: Water absorption/desorption behavior (moisture equilibrium measuring device SGA-X100). The data set is classed as physicochemical. The method, then:
Water absorption/desorption behavior of the bromide (β- form Crystal) and the chloride obtained in Reference Example as a comparative compound was measured using a moisture equilibrium measuring device SGA-X100 (VTI) under conditions of temperature: 25° C., measuring range: relative humidity of from 5 to 95%, and measuring interval: 5%.

Data set [3] in a line: Stability test (40° C., 75% R.H., 3 months). The data set is classed as physicochemical. As to conditions: for Storage stability: 3 months at 40° C. under a relative humidity of 75%. As for the experimental part: Samples were stored under shade for 3 months in a constant temperature constant moisture vessel of 40° C. and 75% R.H. The purity of each sample before storage and after storage was measured using HPLC, and change of crystal form was measured by powder X-ray diffraction. In addition, as a comparative example, crystals of the chloride were stored for 3 months under the same conditions, and amount of an impurity a (a compound in which the imidazolium ring was ring-opened) was measured. [table]

For data set [4] the following is noted: cf. page 22 of WO 01/60803; cited from earlier work.
The next data set relates to tumor. As to conditions: cf. page 22 of WO 01/60803; cited from earlier work.
The mark [5] stands for this setting: after storage, 3 months, 40° C., 75% R.H., under shade.
Where [6] appears, read: 93% R.H. storage, 25° C., 7 days.
Where [7] appears, read: other conditions (ca. 0 to 75% R.H.), 25° C., 7 days.
[8] abbreviates: all conditions (ca. 0 to 93% R.H.), 25° C., 7 days.

A value given as a limit tells only on which side of the number the result lay.

Consider `COCCn1c2c([n+](Cc3cnccn3)c1C)C(=O)c1ccccc1C2=O.[Br-]` [bromide, 1-(2-methoxyethyl)-2-methyl-4,9-dioxo-3-(pyrazin-2-ylmethyl)-4,9-dihydro-1H-naphtho[2,3-d]imidazol-3-ium bromide], for which the Hygroscopic property result in data set [1] (25° C.) is reported as “no hygroscopic property”.

With `COCCn1c2c([n+](Cc3cnccn3)c1C)C(=O)c1ccccc1C2=O` [chloride, 1-(2-methoxyethyl)-2-methyl-4,9-dioxo-3-(pyrazin-2-ylmethyl)-4,9-dihydro-1H-naphtho[2,3-d]imidazol-3-ium chloride], the “Weight gain on forming monohydrate” value in data set [2] (25° C., 65% R.H. to 80% R.H.) is listed as 4.3%. Moreover, the “Relative humidity causing deliquescence” value in data set [2] (25° C., absorption) is on record as at least 85 % R.H. The “Relative humidity below which hydrate returned to anhydride” value in data set [2] (25° C., at the time of drying, hydration state stable up to 25% R.H.) was under 25 % R.H. Besides, in data set [2] (slight heating), the “Heating temperature returning hydrate to anhydride” value was at least 25 °C. For the same compound, in data set [3], the “Storage stability” value is “low”. Also, the “Impurity a (%) (imidazolium ring-opened compound)” value in data set [3] (setting [5]) is reported as 2.45%; in data set [3] (before storage) it was 0.64%. Moreover, in data set [4], the toxicity entry is given as “low”. Further, in the data set on tumor, the “in vivo tumor growth inhibitory activity” value is listed as “good”.

Take `COCCn1c2c([n+](Cc3cnccn3)c1C)C(=O)c1ccccc1C2=O.[Br-]` [α-form Crystal, 1-(2-methoxyethyl)-2-methyl-4,9-dioxo-3-(pyrazin-2-ylmethyl)-4,9-dihydro-1H-naphtho[2,3-d]imidazol-3-ium bromide]: the “Storage stability” value in data set [3] is “degradation due to the storage was not observed”; in data set [3] (listed as α- form Crystals), “stable”. Also, the “HPLC purity (%)” value came out at 99.92% in data set [3] (setting [5]); 99.91% in data set [3] (before storage); 99.89% in data set [1] (33% R.H., 25° C., after 7 days of storage, listed as α-form Crystals); 99.89% in data set [1] (51% R.H., 25° C., after 7 days of storage, listed as α-form Crystals); 99.88% in data set [1] (75% R.H., 25° C., after 7 days of storage, listed as α-form Crystals); 99.89% in data set [1] (93% R.H., 25° C., after 7 days of storage, listed as α-form Crystals). For the same compound, the “HPLC purity (%)” value in data set [1] (before storage, listed as α-form Crystals) was found to be 99.93%; in data set [1] (ca. 0% R.H., 25° C., after 7 days of storage, listed as α-form Crystals), 99.72%. The “Powder X-ray diffraction pattern” value is “β-form” in data set [3] (setting [5]) and “α-form” in data set [3] (before storage). The “Weight change (%)” value in data set [1] (33% R.H., 25° C., 7 days, listed as α-form Crystals) is −0.02%; in data set [1] (51% R.H., 25° C., 7 days, listed as α-form Crystals) it was −0.04%; in data set [1] (75% R.H., 25° C., 7 days, listed as α-form Crystals) it was 0.13%; in data set [1] (93% R.H., 25° C., 7 days, listed as α-form Crystals) it was −0.94%; in data set [1] (ca. 0% R.H. (silica gel), 25° C., 7 days, listed as α-form Crystals), −0.10%. Besides, the Appearance verification entry is listed as “change from reddish yellow to yellow” in data set [1] (setting [6]) and “No changes were found” in data set [1] (setting [7]). The entries for the “Powder X-ray diffraction pattern after storage” value in data set [1] (setting [6]) and in data set [1] (setting [7]) were “transitioned to β- form Crystals” and “No changes were found”, respectively. The Weight loss entry in data set [1] (setting [6]) is “About 1%”. Besides, in data set [1] (25° C.), the “HPLC purity change / degradation due to storage” value is “the purity was not decreased”. Besides, the Hygroscopic property result in data set [1] (25° C.) is recorded as “no hygroscopic property”.

With `COCCn1c2c([n+](Cc3cnccn3)c1C)C(=O)c1ccccc1C2=O.[Br-]` [β-form Crystal, 1-(2-methoxyethyl)-2-methyl-4,9-dioxo-3-(pyrazin-2-ylmethyl)-4,9-dihydro-1H-naphtho[2,3-d]imidazol-3-ium bromide], the Hygroscopic property entry in data set [2] (25° C., humidity range of from 5 to 95%) is listed as “not found”; in data set [1] (25° C.) it was “no hygroscopic property”. The “Storage stability” value is “very stable physically and chemically” in data set [3]; “stable” in data set [3] (listed as β- form Crystals). Further, the “HPLC purity (%)” value in data set [3] (setting [5]) is reported as 99.71%; in data set [3] (before storage), 99.71%; in data set [1] (33% R.H., 25° C., after 7 days of storage, listed as β-form Crystals), 99.73%; in data set [1] (51% R.H., 25° C., after 7 days of storage, listed as β-form Crystals), 99.72%; in data set [1] (75% R.H., 25° C., after 7 days of storage, listed as β-form Crystals), 99.71%; in data set [1] (93% R.H., 25° C., after 7 days of storage, listed as β-form Crystals) it was 99.71%. Also, the “HPLC purity (%)” value in data set [1] (before storage, listed as β-form Crystals) stood at 99.72%; in data set [1] (ca. 0% R.H., 25° C., after 7 days of storage, listed as β-form Crystals), 99.73%. For the same compound, the “Powder X-ray diffraction pattern” value in data set [3] (setting [5]) and in data set [3] (before storage) was “β-form” each time. The “Weight change (%)” value in data set [1] (33% R.H., 25° C., 7 days, listed as β-form Crystals) amounted to 0.02%; in data set [1] (51% R.H., 25° C., 7 days, listed as β-form Crystals), 0.04%; in data set [1] (75% R.H., 25° C., 7 days, listed as β-form Crystals), 0.06%; in data set [1] (93% R.H., 25° C., 7 days, listed as β-form Crystals) it was 0.08%; in data set [1] (ca. 0% R.H. (silica gel), 25° C., 7 days, listed as β-form Crystals) it was 0.01%. Besides, the “HPLC purity change / degradation due to storage” value in data set [1] (25° C.) is “the purity was not decreased”. In addition, the Appearance verification entry in data set [1] (setting [8]) is recorded as “No changes were found”. Besides, the “Powder X-ray diffraction pattern after storage” value in data set [1] (setting [8]) is listed as “did not change”. The “Weight change” value in data set [1] (all of the moisture adjustment conditions, 25° C., 7 days) is “Significant weight change was not found”.
